# According to patent publication US11447460B2, “Compounds and compositions for treating conditions associated with NLRP activity” (Novartis AG, priority 2016, dated 2022):
# pIC50: −log10 of the molar value.
# Test system: IL-1β production in PMA-differentiated THP-1 cells
# Assay: IL-1β production in PMA-differentiated THP-1 cells stimulated with gramicidin (hTHP-1 assay, 2% bovine serum; Bioassays 1 and 2)
# Type: cell-based, human
# Settings: Homo sapiens, THP-1; hTHP-1 assay containing 2% bovine serum; Table 12, by Example #; read-out: Average IC50 of compounds in hTHP-1 assay
# Experimental: IL-1β Production in PMA-Differentiated THP-1 Cells Stimulated with Gramicidin.
# Cell culture-THP-1 cells were purchased from the American Type Culture Collection and sub-cultured according to instructions from the supplier. Prior to experiments, cells were cultured in RPMI 1640 containing 10% heat inactivated FBS, penicillin (100 units/ml) and streptomycin (100 μg/ml), and maintained in log phase prior to experimental setup. Prior to the experiment THP-1 were treated with PMA (Phorbol 12-myristate 13-acetate) (10 μg/ml) for 24 hours. The day of the experiment the media was removed and attaching cells were treated with trypsin for 2 minutes, cells were then collected, washed with PBS (phosphate buffer saline), spin down, resuspended in 2% heat inactivated FBS with RPMI at a concentration of 1×10^6 cells/ml, and 100 ul was plated in a 96 well plate. Cells were incubated with compounds for 1 hours and then stimulated with Gramicidin (5 μM) (Enzo) for 2 hours. Cell free supernatant was collected and the production of IL-1β was evaluated by ELISA. Compounds were dissolved in dimethyl sulfoxide (DMSO) and added to the culture medium to achieve desired concentration (e.g. 100, 30, 10, 3, 1, 0.3 or 0.1 μM). A vehicle only control was run concurrently with each experiment. Final DMSO concentration was 1%.
# THP-1 cells were purchased from the American Type Culture Collection and sub-cultured according to instructions from the supplier. Prior to experiments, cells were cultured in complete RPMI 1640 (containing 10% heat inactivated FBS, penicillin (100 units/ml) and streptomycin (100 μg/ml)), and maintained in log phase prior to experimental setup. Prior to the experiment THP-1 were treated with PMA (Phorbol 12-myristate 13-acetate) (20 ng/ml) for 16-18 hours. On the day of the experiment the media was removed and adherent cells were detached with trypsin for 5 minutes. Cells were then harvested, washed with complete RPMI 1640, spun down, resuspended in RPMI 1640 (containing 2% heat inactivated FBS, penicillin (100 units/ml) and streptomycin (100 μg/ml). The cells were plated in a 384-well plate at a density of 50,000 cells/well (final assay volume 50 μl). Compounds were dissolved in dimethyl sulfoxide (DMSO) and added to the culture medium to achieve desired concentration (e.g. 100, 33, 11, 3.7, 1.2, 0.41, 0.14, 0.046, 0.015, 0.0051, 0.0017 μM). Cells were incubated with compounds for 1 hour and then stimulated with gramicidin (5 μM) (Enzo) for 2 hours. Cell free supernatant was collected and the production of IL-10 was evaluated by HTRF (cisbio). A vehicle only control was run concurrently with each experiment. Final DMSO concentration was 0.38%.
# Compounds tested with protocols 1 and 2 provided IC50 values that are within the variability of the assay.
# Tables 12 and 13 show the biological activity of compounds in hTHP-1 assay containing 2% bovine serum: <1 μM=“++++”; ≥1 and <5 μM=“+++”; ≥5 and <15 μM=“++”; ≥15 and <60 μM=“+”.
row,SMILES,pIC50
1,"CC(C)c1cc(C#N)cc(C(C)C)c1CC(=O)NS(=O)(=O)c1cc(Cl)cc(C(C)(C)O)c1 [Example 28, N-(3-chloro-5-(2-hydroxypropan-2-yl)phenylsulfonyl)-2-(4-cyano-2,6-diisopropylphenyl)acetamide]",5.30 to 6.00
2,"CC(C)c1cccc(C(C)C)c1CC(=O)NS(=O)(=O)c1cc(C(C)(C)O)n(-c2ccccc2)n1 [Example 63, 2-(2,6-diisopropylphenyl)-N-(5-(2-hydroxypropan-2-yl)-1-phenyl-1H-pyrazol-3-ylsulfonyl)acetamide]",4.82 to 5.30
3,"CC(C)c1cccc(C(C)C)c1CC(=O)NS(=O)(=O)c1cc(C2(O)CC2)cs1 [Example 14, 2-(2,6-diisopropylphenyl)-N-(4-(1-hydroxycyclopropyl)thiophen-2-ylsulfonyl)acetamide]",5.30 to 6.00
4,"COc1c(Cl)cc(Cl)cc1CC(=O)NS(=O)(=O)c1ncc(C(C)(C)O)s1 [Example 88, 2-(3,5-dichloro-2-methoxyphenyl)-N-(5-(2-hydroxypropan-2-yl)thiazol-2-ylsulfonyl)acetamide]",4.22 to 4.82
5,"CC(C)c1cc(F)cc(C(C)C)c1CC(=O)NS(=O)(=O)c1ccc(C(C)(C)O)c(CO)c1 [Example 94, 2-(4-fluoro-2,6-diisopropylphenyl)-N-(3-(hydroxymethyl)-4-(2-hydroxypropan-2-yl)phenylsulfonyl)acetamide]",5.30 to 6.00
6,"CC(C)c1cc(F)cc(C(C)C)c1CC(=O)NS(=O)(=O)c1cc(C(C)(C)O)cs1 [Example 9, 2-(4-fluoro-2,6-diisopropylphenyl)-N-(4-(2-hydroxypropan-2-yl)thiophen-2-ylsulfonyl)acetamide]",> 6.00
7,"CC(C)c1cc(F)cc(C(C)C)c1CC(=O)NS(=O)(=O)c1cc(-c2ccccc2)cc(C(C)(C)O)c1 [Example 32, 2-(4-fluoro-2,6-diisopropylphenyl)-N-(5-(2-hydroxypropan-2-yl)biphenyl-3-ylsulfonyl)acetamide]",4.82 to 5.30
8,"CC(C)c1cc(C#N)cc(C(C)C)c1CC(=O)NS(=O)(=O)c1ncc(C(C)O)s1 (stereo not drawn) [Example 93, 2-(4-cyano-2,6-diisopropylphenyl)-N-(5-(1-hydroxyethyl)thiazol-2-ylsulfonyl)acetamide]",5.30 to 6.00
9,"Cc1sc(S(=O)(=O)NC(=O)Cc2c(C(C)C)cc(F)cc2C(C)C)cc1C(C)(C)O [Example 17, 2-(4-fluoro-2,6-diisopropylphenyl)-N-(4-(2-hydroxypropan-2-yl)-5-methylthiophen-2-ylsulfonyl)acetamide]",5.30 to 6.00
10,"CC(C)c1cc(C#N)cc(C(C)C)c1CC(=O)NS(=O)(=O)c1ncc(C(C)(C)O)s1 [Example 6, 2-(4-cyano-2,6-diisopropylphenyl)-N-(5-(2-hydroxypropan-2-yl)thiazol-2-ylsulfonyl)acetamide]",5.30 to 6.00
11,"Cc1c(C(C)(C)O)cccc1S(=O)(=O)NC(=O)Cc1c(C(C)C)cc(F)cc1C(C)C [Example 44, 2-(4-fluoro-2,6-diisopropylphenyl)-N-(3-(2-hydroxypropan-2-yl)-2-methylphenylsulfonyl)acetamide]",4.82 to 5.30
12,"CC(C)c1cc(C#N)cc(C(C)C)c1CC(=O)NS(=O)(=O)c1ccc(C(C)(C)O)nc1 [Example 37, 2-(4-cyano-2,6-diisopropylphenyl)-N-(6-(2-hydroxypropan-2-yl)pyridin-3-ylsulfonyl)acetamide]",4.82 to 5.30
13,"CC(C)c1cc(OC(F)(F)F)cc(C(C)C)c1CC(=O)NS(=O)(=O)c1ncc(C(C)(C)O)s1 [Example 85, 2-(2,6-diisopropyl-4-(trifluoromethoxy)phenyl)-N-(5-(2-hydroxypropan-2-yl)thiazol-2-ylsulfonyl)acetamide]",5.30 to 6.00
14,"CC(C)c1cc(F)cc(C(C)C)c1CC(=O)NS(=O)(=O)c1cc(-c2ccncc2)cc(C(C)(C)O)c1 [Example 29, 2-(4-fluoro-2,6-diisopropylphenyl)-N-(3-(2-hydroxypropan-2-yl)-5-(pyridin-4-yl)phenylsulfonyl)acetamide]",4.22 to 4.82
15,"CC(C)c1cc(F)cc(C(C)C)c1CC(=O)NS(=O)(=O)c1cc(F)cc(C(C)(C)O)c1 [Example 51, 2-(4-fluoro-2,6-diisopropylphenyl)-N-(3-fluoro-5-(2-hydroxypropan-2-yl)phenylsulfonyl)acetamide]",4.82 to 5.30
16,"Cc1cc(C(C)(C)O)cc(S(=O)(=O)NC(=O)Cc2c(C(C)C)cc(F)cc2C(C)C)c1 [Example 46, 2-(4-fluoro-2,6-diisopropylphenyl)-N-(3-(2-hydroxypropan-2-yl)-5-methylphenylsulfonyl)acetamide]",5.30 to 6.00
17,"CC(C)c1ccc(F)c(C(C)C)c1CC(=O)NS(=O)(=O)c1ccc(C(C)(C)O)cc1 [Example 43, 2-(3-fluoro-2,6-diisopropylphenyl)-N-(4-(2-hydroxypropan-2-yl)phenylsulfonyl)acetamide]",5.30 to 6.00
18,"CC(C)c1cc(C#N)cc(C(C)C)c1CC(=O)NS(=O)(=O)c1cc(-c2ccccc2)cc(C(C)(C)O)c1 [Example 33, 2-(4-cyano-2,6-diisopropylphenyl)-N-(5-(2-hydroxypropan-2-yl)biphenyl-3-ylsulfonyl)acetamide]",4.82 to 5.30
19,"CC1(c2ccc(F)c(S(=O)(=O)NC(=O)Cc3c4c(c(F)c5c3CCC5)CCC4)c2)OCCO1 [Example 57, 2-(8-fluoro-1,2,3,5,6,7-hexahydros-indacen-4-yl)-N-(2-fluoro-5-(2-methyl-1,3-dioxolan-2-yl)phenylsulfonyl)acetamide]",4.22 to 4.82
20,"CC(C)c1cc(F)cc(C(C)C)c1CC(=O)NS(=O)(=O)c1cc(C2(C)OCCO2)ccc1F [Example 56, 2-(4-fluoro-2,6-diisopropylphenyl)-N-(2-fluoro-5-(2-methyl-1,3-dioxolan-2-yl)phenylsulfonyl)acetamide]",> 6.00
21,"CC(C)c1cc(F)cc(C(C)C)c1CC(=O)NS(=O)(=O)c1cccc(C(C)(C)O)c1F [Example 50, 2-(4-fluoro-2,6-diisopropylphenyl)-N-(2-fluoro-3-(2-hydroxypropan-2-yl)phenylsulfonyl)acetamide]",5.30 to 6.00
22,"CC(C)c1c(F)c(Cl)c(F)c(C(C)C)c1CC(=O)NS(=O)(=O)c1ncc(C(C)(C)O)s1 [Example 83, 2-(4-chloro-3,5-difluoro-2,6-diisopropylphenyl)-N-(5-(2-hydroxypropan-2-yl)thiazol-2-ylsulfonyl)acetamide]",> 6.00
23,"CC(C)(O)c1coc(S(=O)(=O)NC(=O)Cc2c3c(cc4c2CCC4)CCC3)c1 [Example 1, 2-(1,2,3,5,6,7-Hexahydros-indacen-4-yl)-N-(4-(2-hydroxypropan-2-yl)furan-2-ylsulfonyl)acetamide]",4.82 to 5.30
24,"CC(C)c1cc(C#N)cc(C(C)C)c1CC(=O)NS(=O)(=O)c1cc(C(C)(C)O)cc(C(C)(C)O)c1 [Example 31, N-(3,5-bis(2-hydroxypropan-2-yl)phenylsulfonyl)-2-(4-cyano-2,6-diisopropylphenyl)acetamide]",4.82 to 5.30
25,"CC(C)(O)c1cnc(S(=O)(=O)NC(=O)Cc2c3c(c(F)c4c2CCC4)CCC3)s1 [Example 69, 2-(8-fluoro-1,2,3,5,6,7-hexahydros-indacen-4-yl)-N-(5-(2-hydroxypropan-2-yl)thiazol-2-ylsulfonyl)acetamide]",4.22 to 4.82
26,"CC(C)(O)c1cnc(S(=O)(=O)NC(=O)Cc2c(C3CC3)cccc2C2CC2)s1 [Example 78, 2-(2,6-dicyclopropylphenyl)-N-(5-(2-hydroxypropan-2-yl)thiazol-2-ylsulfonyl)acetamide]",4.82 to 5.30

# Same assay, conditions: Homo sapiens, THP-1; hTHP-1 assay containing 2% bovine serum; Table 13, by Final Target Number; read-out: Average IC50 of compounds in hTHP-1 assay
row,SMILES,pIC50
1,CC(C)c1cc(F)cc(C(C)C)c1CC(=O)NS(=O)(=O)c1cccc(CN(C)C)c1 [Compound 215],4.82 to 5.30
2,CC(C)c1cc(F)cc(C(C)C)c1CC(=O)NS(=O)(=O)c1ncc(CN(C)C)s1 [Compound 213],4.82 to 5.30

# Same assay, conditions: hTHP-1 assay containing 2% bovine serum; Table 12, by Example #; read-out: Average IC50 of compounds in hTHP-1 assay
row,SMILES,pIC50
1,CC(C)c1cc(F)cc(C(C)C)c1CC(=O)NS(=O)(=O)c1ccc(S(F)(F)(F)(F)F)cc1 [Example 39],4.22 to 4.82
2,"CC(C)(O)c1csc(S(=O)(=O)NC(=O)Cc2c3c(cc4c2CCC4)CCC3)c1 [Example 7, 2-(1,2,3,5,6,7-hexahydro-sindacen-4-yl)-N-(4-(2-hydroxypropan-2-yl)thiophen-2-ylsulfonyl)acetamide]",4.82 to 5.30
